According to ChEMBL document CHEMBL1201862, “PubChem BioAssay data set” (2004):
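Following 48 hours of exposure in 96-well plates, responses at five concentrations were used to interpolate endpoints linearly. GI50 = concentration required for 50% inhibition of growth.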 The source made the active and inactive calls. Cut-off read from the data, not from the text of the source: active = GI50 up to about 1.1 µM and inactive = higher.

Tests used:
Assay in all cases: NCI anticancer screen, dose series, 48 h
COLO 205 = test system: COLO 205
HCT-116 = test system: HCT-116
HT-29 = test system: HT-29
KM12 = test system: KM12
MDA-N = test system: MDA-N
Malme-3M = test system: Malme-3M
OVCAR-3 = test system: OVCAR-3
OVCAR-5 = test system: OVCAR-5
RXF 393 = test system: RXF 393
SF-268 = test system: SF-268
SF-539 = test system: SF-539
SK-OV-3 = test system: SK-OV-3
SN12C = test system: SN12C
SNB-19 = test system: SNB-19
SW-620 = test system: SW-620
TK-10 = test system: TK-10
U-251 = test system: U-251
UACC-62 = test system: UACC-62
CCRF-CEM = test system: CCRF-CEM
MOLT-4 = test system: MOLT-4

Measured: GI50

CC(C)(CO)N1CCN(C(S)=Nc2ccccc2)CC1
inactive: COLO 205 > 100 µM | HCT-116 > 100 µM | HT-29 > 100 µM | KM12 > 100 µM | MDA-N > 100 µM | Malme-3M > 100 µM | OVCAR-3 > 100 µM | OVCAR-5 > 100 µM | RXF 393 > 100 µM | SF-268 > 100 µM | SF-539 > 100 µM | SK-OV-3 > 100 µM | SN12C > 100 µM | SNB-19 > 100 µM | SW-620 > 100 µM | TK-10 > 100 µM | U-251 > 100 µM | UACC-62 > 100 µM

BrCCCCCOc1ccc(-c2c3ccccc3c(-c3ccc(OCCCCCBr)cc3)c3ccccc23)cc1
inactive: CCRF-CEM > 100 µM | COLO 205 > 100 µM | HCT-116 > 100 µM | HT-29 > 100 µM | KM12 > 100 µM | MDA-N > 100 µM | MOLT-4 > 100 µM | OVCAR-5 > 100 µM | RXF 393 > 100 µM | SF-268 > 100 µM | SF-539 > 100 µM | SK-OV-3 > 100 µM | SN12C > 100 µM | SNB-19 > 100 µM | SW-620 > 100 µM | TK-10 > 100 µM | U-251 > 100 µM | UACC-62 > 100 µM

Cc1ccc(/N=N/C(=O)NNc2ccc(C)c([N+](=O)[O-])c2)cc1[N+](=O)[O-]
inactive: CCRF-CEM 19.2 µM | HCT-116 23.7 µM | HT-29 53.2 µM | MDA-N 32.7 µM | MOLT-4 12.5 µM | Malme-3M 30.8 µM | OVCAR-3 28.1 µM | OVCAR-5 30.1 µM | SF-268 28.6 µM | SN12C 31.4 µM | SNB-19 36.3 µM | SW-620 41 µM | TK-10 45.1 µM | U-251 29.9 µM | UACC-62 13.9 µM

O=C(O)c1nc2cc(C(F)(F)F)ccc2[nH]c1=O
inactive: CCRF-CEM > 100 µM | COLO 205 > 100 µM | HCT-116 > 100 µM | HT-29 > 100 µM | KM12 > 100 µM | MDA-N > 100 µM | MOLT-4 > 100 µM | Malme-3M > 100 µM | OVCAR-3 > 100 µM | OVCAR-5 > 100 µM | SF-268 > 100 µM | SF-539 > 100 µM | SK-OV-3 > 100 µM | SN12C > 100 µM | SNB-19 > 100 µM | SW-620 > 100 µM | TK-10 > 100 µM | U-251 > 100 µM | UACC-62 > 100 µM

CCOC(=O)c1sc(=S)n(-c2ccc(Cl)cc2)c1-n1cc(-c2ccccc2)c(C#N)c1N
inactive: CCRF-CEM 31.8 µM | COLO 205 > 100 µM | HCT-116 26.1 µM | HT-29 51.6 µM | KM12 > 100 µM | MDA-N 50.8 µM | MOLT-4 > 100 µM | OVCAR-3 13.7 µM | OVCAR-5 > 100 µM | RXF 393 15.4 µM | SF-268 2.72 µM | SF-539 19.8 µM | SK-OV-3 16.9 µM | SN12C 18.6 µM | SNB-19 19 µM | SW-620 53 µM | TK-10 11.3 µM | U-251 15.2 µM | UACC-62 24.8 µM

C/C(=N\Nc1ccc([N+](=O)[O-])cc1[N+](=O)[O-])c1ccc2ccccc2n1
inactive: COLO 205 > 100 µM | HCT-116 57.4 µM | HT-29 74.6 µM | KM12 > 100 µM | MDA-N > 100 µM | MOLT-4 > 100 µM | Malme-3M > 100 µM | OVCAR-5 > 100 µM | RXF 393 > 100 µM | SF-268 61 µM | SF-539 81.8 µM | SK-OV-3 > 100 µM | SN12C > 100 µM | SNB-19 20 µM | SW-620 > 100 µM | TK-10 39.6 µM | U-251 33.1 µM | UACC-62 66.2 µM

CCC(C)C(NC(=O)c1cccc2c(=O)c3ccccc3[nH]c12)C(=O)O (configuration not stated)
inactive: CCRF-CEM 64 µM | COLO 205 > 100 µM | HCT-116 > 100 µM | HT-29 > 100 µM | KM12 61.1 µM | MDA-N > 100 µM | MOLT-4 82.6 µM | Malme-3M > 100 µM | OVCAR-3 > 100 µM | OVCAR-5 > 100 µM | SF-268 87.5 µM | SK-OV-3 > 100 µM | SN12C > 100 µM | SNB-19 99.5 µM | SW-620 > 100 µM | TK-10 > 100 µM | U-251 73.5 µM | UACC-62 > 100 µM

CCOC(=O)c1cn(CC)c(=O)n2c1nc1ccccc12
inactive: CCRF-CEM 28.4 µM | COLO 205 > 100 µM | HCT-116 50.6 µM | HT-29 36.7 µM | KM12 59.6 µM | MDA-N > 100 µM | MOLT-4 14.1 µM | OVCAR-3 83.8 µM | OVCAR-5 > 100 µM | RXF 393 61.9 µM | SF-539 55.5 µM | SN12C > 100 µM | SNB-19 > 100 µM | SW-620 > 100 µM | U-251 > 100 µM | UACC-62 57.5 µM

CCCCC1C=Cn2c(=O)oc3c(OC(C)C)c(OC(C)C)c(O)c1c32 (configuration not stated)
inactive: CCRF-CEM 8.49 µM | COLO 205 16.3 µM | HCT-116 17.4 µM | HT-29 14.6 µM | KM12 14.4 µM | MDA-N 20.9 µM | MOLT-4 6.1 µM | OVCAR-3 16.4 µM | OVCAR-5 17.2 µM | SF-268 18.5 µM | SF-539 23.6 µM | SK-OV-3 25.2 µM | SN12C 20.5 µM | SNB-19 18.2 µM | SW-620 13.9 µM | TK-10 16.3 µM | U-251 16 µM | UACC-62 13.4 µM

CCOC(=O)P(=O)(O)c1ccc(N(C)Cc2ccccc2)cc1
inactive: CCRF-CEM > 100 µM | COLO 205 > 100 µM | HCT-116 > 100 µM | HT-29 > 100 µM | KM12 > 100 µM | MDA-N > 100 µM | MOLT-4 > 100 µM | Malme-3M > 100 µM | OVCAR-3 > 100 µM | OVCAR-5 > 100 µM | SF-268 > 100 µM | SF-539 > 100 µM | SK-OV-3 > 100 µM | SN12C > 100 µM | SNB-19 > 100 µM | SW-620 > 100 µM | TK-10 > 100 µM | U-251 > 100 µM | UACC-62 > 100 µM

Nc1nc(N)c(N=O)c(OCC2CCCCC2)n1
inactive: CCRF-CEM 5.36 µM | COLO 205 12.3 µM | HCT-116 9.12 µM | HT-29 9.64 µM | KM12 18.7 µM | MDA-N 11 µM | MOLT-4 6.64 µM | OVCAR-3 8.47 µM | OVCAR-5 9.71 µM | RXF 393 7.1 µM | SF-268 8.49 µM | SF-539 8.91 µM | SK-OV-3 19 µM | SN12C 5.15 µM | SNB-19 26.8 µM | SW-620 24 µM | TK-10 6.64 µM | U-251 15.7 µM | UACC-62 6.98 µM
